The source of these data is publication PMC6616128, “Liquiritin, as a Natural Inhibitor of AKR1C1, Could Interfere With the Progesterone Metabolism” (Frontiers in Physiology, 2019).

For one assay, the target named is T1, recombinant AKR1C2 (Homo sapiens, UniProt P52895).
T1 construct: made in house; host or cells: Escherichia coli JM109
T1 sequence (P52895 1-323): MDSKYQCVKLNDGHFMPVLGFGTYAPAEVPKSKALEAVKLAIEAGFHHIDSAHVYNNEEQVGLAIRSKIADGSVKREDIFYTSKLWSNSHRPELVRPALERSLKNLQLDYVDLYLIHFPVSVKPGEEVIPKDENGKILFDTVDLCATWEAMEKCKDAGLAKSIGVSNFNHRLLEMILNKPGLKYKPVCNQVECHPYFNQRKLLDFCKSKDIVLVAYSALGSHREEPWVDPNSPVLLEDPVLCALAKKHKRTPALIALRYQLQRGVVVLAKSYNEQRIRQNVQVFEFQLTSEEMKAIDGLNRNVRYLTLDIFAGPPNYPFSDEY
Nature of the assay: Enzyme activity (NADPH) assay with s-tetralol, recombinant GST-AKR1C2. The assay is classed as biochemical.

The target in assay [1] is T2, AKR1C1 (Homo sapiens, UniProt Q04828).
T2 sequence (Q04828 1-323): T1 sequence (P52895 1-323) with V38T, H47R, V54L, S87C, M151V, H170R, L172Q
Nature of the assay: Enzyme activity (NADPH) assay with s-tetralol, recombinant GST-AKR1C1.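 For all read-outs here: GST-fused AKR1C1 expressed in E. coli and purified by glutathione affinity, control wells received DMSO instead of compound, duplicate samples from a single experiment.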 It counts as biochemical. Also noted: made in house; host or cells: Escherichia coli JM109. As to conditions: for remaining activity at 2 µM / slope / enzyme activity / inhibition at 2 µM / % inhibition / ratio (activity relative to CON): 2 μM compound; for slope: CON 0.0122; for enzyme activity: CON 192.295568.
Procedure: GST-tagged recombinant AKR1C isoforms expressed JM109 was grown in Luria-Bertani broth (100 μg⋅ml-1 ampicillin, pH = 7.0) at 37°C with orbital shaking at 220 rpm. When cells achieved an OD600 nm between 0.4 and 0.6, 0.3 mM final concentration of isopropyl β-D-1-thiogalactopyranoside (IPTG) was added to the cultures and incubated for an additional 12 h at 25°C. Cells were harvested by centrifugation at 8000 g for 10 min, and the cell pellets were stored at -80°C for storage. The pellets were resuspended in 1 × PBS, pH = 7.4 and lysed by ultrasonication at ice-cold temperature using an UH-03 union instrument. The purification of glutathione-S-transferase (GST)-fusion AKR1C1, AKR1C2, and AKR1C3 were then carried out using ÄKTA systems from GE Healthcare as described in Handbook. The recombinant proteins were eluted in 50 mM Tris–HCl (pH = 8.0) with 20 mM reduced glutathione, fresh preparedly. Protein concentrations were determined using the Bradford protein assay kit. All proteins were aliquoted and stored at -80°C containing 20% glycerol.
(§1) To screen for the indicated inhibitor, the assay mixture was added with additional DMSO or 2 μM compounds. […] The inhibition patterns were determined by fitting initial velocity and inhibitor concentration into inhibition models using Graphpad Prism 6.0. All inhibition data were obtained from single experiments, with samples conducted in duplicate.
Firstly, we overexpressed recombinant human AKR1C in E. coli in the form of a GST-fusion protein, and then purified it by affinity chromatography on glutathione-Sepharose.
To screen for the inhibitors of AKR1C1, we developed a readily accessible indirect NADPH generating-based assay that can be used for high-throughput inhibitors screening. […] Wells were included containing enzyme and no inhibitor or 2 μM inhibitor.

The target of assay [2] is T3, recombinant AKR1C3 (Homo sapiens, UniProt P42330).
T3 sequence (P42330 1-323): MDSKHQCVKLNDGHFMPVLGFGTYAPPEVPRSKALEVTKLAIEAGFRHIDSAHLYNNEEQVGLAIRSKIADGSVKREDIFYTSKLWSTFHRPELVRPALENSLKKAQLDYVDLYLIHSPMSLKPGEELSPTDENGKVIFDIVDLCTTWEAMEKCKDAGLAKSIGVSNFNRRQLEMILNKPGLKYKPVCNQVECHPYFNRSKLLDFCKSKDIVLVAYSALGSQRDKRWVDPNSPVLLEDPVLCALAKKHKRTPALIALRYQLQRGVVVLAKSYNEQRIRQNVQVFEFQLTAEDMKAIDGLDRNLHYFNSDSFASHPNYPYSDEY
Nature of the assay: biochemical.
Procedure: (§2) Protein concentrations were determined using the Bradford protein assay kit.
as §1
(§3) Each experiment was repeated three times and the differences among means were significant determined by Student t-text (^∗p < 0.05; ^∗∗p < 0.01; ^∗∗∗p < 0.001).

Assay [3] deals with T2, AKR1C1. The assay is described as follows: Progesterone metabolism in HEC-1-B cells transfected with AKR1C1 plasmid. It counts as cell-based. Also noted: expressed in transfected cells; host or cells: HEC-1-B cells. As to conditions: 50 μM compound, 5 μM progesterone, 6 h.
Procedure: HEC-1-B cell line was purchased from the Cell Bank of the Chinese Academy of Sciences (Shanghai, China). HEC-1-B cell was cultured in DMEM (Gibco, Grand Island, New York, United States) supplemented with 10% fetal bovine serum at 37°C in a 5% CO2 incubator. In all experiments, the cells were used at passages 4 to 10. The cells were transfected with AKR1C1 plasmid using jet PRIME reagent (Polyplus) according to manufacturer’s instructions. […] The culture media were collected immediately and 6 h later. […] A LC-20A High Performance liquid chromatography (Shimadzu, Japan) with UV detector was used for analyzing progesterone cultured from the cells. […] The mobile phase used was a mixture of mobile phase A and mobile phase B in an isocratic program as 3:7 running on an Agilent HC C18 column (150 mm × 4.6 mm, 5 μm particle size) at a constant temperature of 35°C. The flow rate was 1.0 mL/min and the detection wavelength was 245 nm. The whole analytical period was 10 min for each sample. The standard (progesterone) was dissolved in methanol. […]
Therefore, we choose to transfect cells with AKR1C1 gene for cellular study. […] Each experiment was repeated three times and the differences among means were significant determined by Student t-text (^∗p < 0.05; ^∗∗p < 0.01; ^∗∗∗p < 0.001).
The target of assay [4] is T3, recombinant AKR1C3. As to conditions: GST-AKR1C3; S-tetralol/NADP+.
Procedure: as §2, §1, §3
The mark [5] stands for this setting: Supplementary Table 1, CON = 1, read-out: ratio (activity relative to CON).
Where [6] appears, read: Supplementary Table 1, read-out: % inhibition.

A word on the IC50: it is the concentration needed to halve the response being measured. Usually inhibition stands for the percentage by which the read-out fell short of the control. The Km is the substrate concentration at which the rate is half of its maximum. By Vmax is commonly meant the rate approached at saturating substrate. A word on the % inhibition: it is the relative decrease from the control value, in per cent.

Changes are numbered by the printed parent chain. Where two headings read alike, the source gives them in different places.

Procedure for recombinant AKR1C2: as §2, §1, §3

Take `O=C1C[C@@H](c2ccc(O[C@@H]3O[C@H](CO)[C@@H](O)[C@H](O)[C@H]3O)cc2)Oc2cc(O)ccc21` [Liquiritin]: the values for the IC50 at recombinant AKR1C2 (s-tetralol 103.30 μM as substrate) and on recombinant AKR1C3 [2] were 0.61 ± 0.05 µM and 3.72 ± 0.09 µM, respectively. Further, the remaining activity at 2 µM at AKR1C1 [1] (Figure 1A, read-out: % Enzyme Activity) stood at 31%; on AKR1C1 [1] (setting [5]), 31%. Besides, the slope at AKR1C1 [1] (Supplementary Table 1) is recorded as 0.003777. Moreover, at AKR1C1 [1] (Supplementary Table 1), the enzyme activity came to 59.5351 nmol/min/mg. Further, the inhibition at 2 µM on AKR1C1 [1] (setting [6]) turned out to be 69%; on AKR1C1 [1] (text on Figure 1A, read-out: inhibitory effect over AKR1C1 enzyme activity (% inhibition)), 34%. Further, the inhibition pattern result on AKR1C1 [1] (s-tetralol concentration variation) is on record as “competitive inhibitor”. Moreover, the “IC50 ratio 1C1/1C2” value on AKR1C1 [1] (selectivity AKR1C1 vs AKR1C2) is recorded as 1.03. Further, the “IC50 ratio 1C1/1C3” value at AKR1C1 [1] (selectivity AKR1C1 vs AKR1C3) is listed as 0.17. On AKR1C1 [3], this compound displayed an inhibition at 50 µM of 85%.

For `O[C@H]1CCCc2ccccc21` [S-tetralol, S-(+)-1,2,3,4-tetrahydro-1-naphthol], the Kcat was found to be 0.0962 s⁻¹ at recombinant AKR1C2 (GST-AKR1C2, S-tetralol/NADP+); 0.2065 s⁻¹ at AKR1C1 [1] (GST-AKR1C1, S-tetralol/NADP+); 0.553 s⁻¹ on recombinant AKR1C3 [4]. Moreover, the Km was determined as 103 µM at recombinant AKR1C2 (GST-AKR1C2, S-tetralol/NADP+); 23.5 µM on AKR1C1 [1] (GST-AKR1C1, S-tetralol/NADP+); 851 µM at recombinant AKR1C3 [4]. Also, the Vmax was found to be 94.58 nmol/min/mg on recombinant AKR1C2 (GST-AKR1C2, S-tetralol/NADP+); 203.10 nmol/min/mg on AKR1C1 [1] (GST-AKR1C1, S-tetralol/NADP+); 543.90 nmol/min/mg on recombinant AKR1C3 [4]. Further, the catalytic efficiency on AKR1C1 [1] (recombinant AKR1C1) is reported as 0.53 min^-1/μM^-1.

For `COc1cc2c(cc1O)CC[n+]1cc3c(OC)c(OC)ccc3cc1-2.[Cl-]` [Jatrorrhizine Hydrochloride], at AKR1C1 [1] (Supplementary Table 1), the “% inhibition” value is -4.38%, the slope amounted to 0.0127 and the enzyme activity came out at 200.7169 nmol/min/mg. In addition, the “ratio (activity relative to CON)” value on AKR1C1 [1] (Supplementary Table 1, CON = 1) is 1.0438.

For `O=C(O[C@@H]1Cc2c(O)cc(O)cc2O[C@@H]1c1ccc(O)c(O)c1)c1cc(O)c(O)c(O)c1` [(−)-Epicatechin gallate], on AKR1C1 [1] (Supplementary Table 1), the “% inhibition” value worked out at 42.46%, the slope is given as 0.00702 and the enzyme activity is reported as 110.6488 nmol/min/mg. Moreover, the “ratio (activity relative to CON)” value on AKR1C1 [1] (Supplementary Table 1, CON = 1) is 0.5754.

In the case of `COc1cc2c(cc1CC=C(C)C)C(=O)C[C@@H](c1ccc(O)cc1)O2` [Bavachinin A], on AKR1C1 [1] (Supplementary Table 1), the slope was 0.009203 and the enzyme activity amounted to 145.0548 nmol/min/mg. Also, the remaining activity at 2 µM on AKR1C1 [1] (setting [5]) is 75.4%. Moreover, the inhibition at 2 µM at AKR1C1 [1] (setting [6]) was determined as 24.6%.

In the case of `O=c1c(O[C@@H]2O[C@H](CO)[C@@H](O)[C@H](O)[C@H]2O)c(-c2ccc(O)c(O)c2)oc2cc(O)cc(O)c12` [Isoquercitrin], on AKR1C1 [1] (Supplementary Table 1), the slope worked out at 0.007797 and the enzyme activity was determined as 122.898 nmol/min/mg. The remaining activity at 2 µM at AKR1C1 [1] (setting [5]) stood at 63.9%. The inhibition at 2 µM on AKR1C1 [1] (setting [6]) was 36.1%.

Regarding `COc1cc(C(=O)O[C@H]2[C@@H]3C=CO[C@@H](O[C@@H]4O[C@H](CO)[C@@H](O)[C@H](O)[C@H]4O)[C@@H]3[C@@]3(CO)O[C@@H]23)ccc1O` [Picroside Ⅱ], on AKR1C1 [1] (Supplementary Table 1), the slope is 0.006957 and the enzyme activity was 109.658 nmol/min/mg. Moreover, the remaining activity at 2 µM at AKR1C1 [1] (setting [5]) was found to be 57%. Besides, the inhibition at 2 µM at AKR1C1 [1] (setting [6]) was 43%.
